Measured values as given in patent US5849779A, “Pyrazole derivatives and their pharmaceutical use” (Japan Energy Corporation, priority 1996, dated 1998).

Experiments:
[1] = test system: Human coronary artery smooth muscle cells; experiment: Inhibiting effect on PDGF-stimulated smooth muscle cell growth (3H-thymidine method); assay type: cell-based; conditions: PDGF-BB 20 ng/mL, 16 h
Procedure: Effect on PDGF-stimulated smooth muscle cell growth was estimated by the following method to verify inhibitory activity of the pyrazole derivative of the present invention against smooth muscle cell growth. (Test method)
Human coronary artery smooth muscle cells seeded on a 96-well plate (2×10^4 cell/well) were incubated in a complete medium consisting of a basal medium (SmGM-2: Iwaki Glass Co., Japan), FBS (5%), EGF (0.5 ng/mL), insulin (0.005 mg/mL), and basic-FGF (2 ng/mL) for 24 h until confluent. The medium was replaced by the basal medium followed by incubation for further 24 h to lead cells to GO stage.
The medium was replaced by a medium consisting of the basal medium and PDGF-BB (20 ng/mL) to induce PDGF-stimulated cell growth, and a DMSO solution of a test sample was added followed by incubation for 16 h. Then, inhibition of cell growth was estimated by a ^3 H-thymidine method as described in Example 22.
Tranilast was used as positive reference.

BALB/c 3T3 cells = experiment: Inhibiting effect on PDGF-stimulated cell growth (3H-thymidine uptake); assay type: cell-based; conditions: Mus musculus, BALB/c3T3, PDGF-AA or PDGF-BB 10 ng/mL, 16 h; for inhibition at 3 µM: concentration 3 μM
Procedure: Effect on PDGF-stimulated cell growth was estimated by the following method using fibroblasts, growth of which is induced by PDGF in the same manner of smooth muscle cells to verify inhibitory activity of the pyrazole derivative of the present invention against PDGF-stimulated cell growth.
BALB/c 3T3 cells seeded on a 96-well plate (3-5×10^3 cell/well) were incubated in a high glucose Dulbecco's modified Eagle's medium (DME medium) containing 10% fetal bovine sera (FBS) for 2-3 days until confluent. The medium was replaced by high glucose DME medium containing 0.5% platelet poor plasma (PPP) followed by incubation for further 24 h.
The medium was replaced by high glucose DME medium containing PDGF-AA or PDGF-BB (10 ng/mL) to induce PDGF-stimulated cell growth, and a DMSO solution of a test sample was added followed by incubation for 16 h. Then, ^3 H-thymidine (1 mCi/ml) was 20-fold diluted by Ca^2+ and Mg^2+ free phosphate-bufferized saline, and 0.02 mL of the resulted solution was added followed by incubation for further 4 h. Final concentration of DMSO was not more than 0.25%.
After ^3 H-thymidine in the medium was washed out, cells were treated with trypsin/EDTA and collected using a cell-harvester. Amount of ^3 H-thymidine taken in the cells was measured by a liquid scintillation counter. […] Growth inhibition was estimated by difference of the amount of ^3 H-thymidine taken between the test incubation and the reference incubation.

re-narrowing = conditions: Rinsho Iyaku, 12, 65-85 (1996); cited from earlier work
smooth muscle cell [2] = conditions: as reported in literature; cited from earlier work
hepatic function = conditions: clinical use; cited from earlier work
smooth muscle cell [3] = conditions: Atherosclerosis, 107, 179-185 (1994); cited from earlier work

Question: With `CCOC(=O)c1cn(Cc2ccccc2)nc1N(Cc1ccccc1)C(=O)Nc1ccccc1` [Example 18, N-phenyl-N'-benzyl-N'-(1-benzyl-4-ethoxycarbonylpyrazol-3-yl)urea] as the compound, how does the IC50 [1] read?
Answer: 3 µM

Question: Which inhibition at 3 µM (BALB/c 3T3 cells) does the source give for `CCCNC(=O)Nc1c(C(=O)OCC)cnn1-c1ccccc1` [Example 7, N-propyl-N'-(4-ethoxycarbonyl-1-phenylpyrazol-5-yl)urea] here?
Answer: 36.4%

Question: For `CCOC(=O)c1cnn(-c2ccccc2)c1NC(=O)Nc1ccccc1` [Example 6, N-phenyl-N'-(4-ethoxycarbonyl-1-phenylpyrazol-5-yl)urea], which inhibition at 3 µM (BALB/c 3T3 cells) is on record?
Answer: 49.9%

Question: Which results are given for `CCCCn1cc(C(=O)OCC)c(NC(=S)Nc2ccccc2)n1` [Example 3, N-phenyl-N'-(1-butyl-4-ethoxycarbonylpyrazol-3-yl)thiourea]?
Answer: IC50 [1]: 1.5 µM; inhibition at 3 µM (BALB/c 3T3 cells): 89.5%

Question: What does the source list for `CCCCn1cc(C(=O)OCC)c(NC(=O)Nc2ccccc2)n1` [Example 2, N-phenyl-N'-(1-butyl-4-ethoxycarbonylpyrazol-3-yl)urea]?
Answer: IC50 [1]: 3.1 µM; inhibition at 3 µM (BALB/c 3T3 cells): 81.9%

Question: Which IC50 [1] does the source give for `CCCNC(=O)Nc1nn(Cc2ccccc2)cc1C(=O)OCC` [Example 1, N-propyl-N'-(1-benzyl-4-ethoxycarbonylpyrazol-3-yl)urea] here?
Answer: 2.3 µM

Question: What about the inhibition at 3 µM (BALB/c 3T3 cells) of the same compound?
Answer: 84.5%

Question: Which IC50 [1] does the source give for `CCOC(=O)c1cn(Cc2ccccc2)nc1NC(=O)NC(C)C` [Example 8, N-isopropyl-N'-(1-benzyl-4-ethoxycarbonylpyrazol-3-yl)urea] here?
Answer: 1.3 µM

Question: For `CCOC(=O)c1cn(Cc2ccccc2)nc1NC(=O)N(c1ccccc1)c1ccccc1` [Example 16, N, N-diphenyl-N'-(1-benzyl-4-ethoxycarbonylpyrazol-3-yl)urea], which IC50 [1] is on record?
Answer: 1.1 µM

Question: Which results are given for `COc1ccc(/C=C/C(=O)Nc2ccccc2C(=O)O)cc1OC` [tranilast, N-(3,4-dimethoxycinnamoyl) anthranilic acid, reference compound]?
Answer: prevention of clinical re-narrowing after percutaneous transluminal angioplasty (re-narrowing): prevent clinical re-narrowing after percutaneous transluminal angioplasty; inhibition of PDGF-stimulated smooth muscle cell growth (smooth muscle cell [2]): reported to inhibit PDGF-stimulated smooth muscle cell growth; IC50 [1]: 5 µM; side effects on hepatic function (hepatic function): often causes side effects on hepatic function; inhibition at 10 µM (BALB/c 3T3 cells; concentration 10 μM): 19.2%; inhibition at 30 µM (BALB/c 3T3 cells; concentration 30 μM): 57.1%; inhibition at 100 µM (BALB/c 3T3 cells; concentration 100 μM): 92.5%; inhibition of growth of smooth muscle cell (smooth muscle cell [3]): inhibit growth of smooth muscle cell

Question: Which IC50 [1] does the source give for `CCCN(CCC)C(=O)Nc1nn(Cc2ccccc2)cc1C(=O)OCC` [Example 15, N, N-dipropyl-N'-(1-benzyl-4-ethoxycarbonylpyrazol-3-yl)urea] here?
Answer: 2.2 µM
